Experimental data as given in patent US11414381B2, “Fluorinated imide salt compound and surfactant” (Mitsubishi Materials Electronic Chemicals Co., Ltd., priority 2018, dated 2022).

Experiments:
[1] = Stability in water: decomposition rate from 19F-NMR before and after storage; format: physicochemical; details: stored 20 days at 20° C. to 25° C.
Procedure: (§1) Each of the compounds was mixed with water so that an aqueous solution having a concentration of 10% by mass was prepared. The prepared aqueous solution was stored for 20 days in a room adjusted to 20° C. to 25° C. By calculating a decomposition rate of the compound from ^19F—NMR spectra of the compound in the aqueous solution that were obtained before and after the storage, the stability in water was evaluated. The decomposition rate was calculated by the following formula. A compound having a decomposition rate of 3% or less was described as “No decomposition”. […] Therefore, in Comparative Example 2, the stability in water was evaluated in the saturated state. Decomposition rate (%)={1-(integration value of ^19F—NMR spectrum after storage/integration value of ^19F—NMR spectrum before storage)}×100

[2] = Surface activity: surface tension of aqueous solution, Wilhelmy method; format: physicochemical
Procedure: (§2) Each of the compounds was mixed with water so that an aqueous solution having a concentration of 1,000 ppm by mass was prepared. By measuring the surface tension of the prepared aqueous solution, the surface activity was evaluated. The surface tension was measured by the Wilhelmy method using an automatic surface tensiometer CBVP-Z manufactured by Kyowa Interface Science Co., LTD. […] Therefore, in Comparative Example 2, the surface tension was measured in the saturated state.

[3] = Dissolution in water when preparing the aqueous test solutions; format: physicochemical
Procedure: as §2, §1

[4] = Surface tension-reducing ability, background comparison with PFOA / PFOS; format: physicochemical; details: study conducted by the inventors
[5] = according to Japanese Patent No. 4080998; cited from earlier work

With `O=S(=O)([N-]S(=O)(=O)C(F)(F)C(F)(F)C(F)(F)C(F)(F)F)C(F)(F)C(F)(F)C(F)(F)C(F)(F)F.[K+]` [Comparative Example 1, bis(perfluorobutanesulfonyl)imide potassium salt] the Stability in water ([1]; 10% by mass aqueous solution) was “No decomposition (A compound having a decomposition rate of 3% or less was described as “No decomposition”)” and the Surface tension ([2]; aqueous solution, concentration 1,000 ppm by mass) was 43 mN/m.
For `O=S(=O)([O-])C(F)(F)C(F)(F)C(F)(F)C(F)(F)C(F)(F)C(F)(F)C(F)(F)C(F)(F)F.[K+]` [Comparative Example 2, potassium salt of perfluorooctanesulfonic acid (PFOS)], the Stability in water ([1]; saturated aqueous solution) was “No decomposition (A compound having a decomposition rate of 3% or less was described as “No decomposition”)”, the Dissolution in water ([3]; mixed with water for 10% by mass) was “formed a saturated aqueous solution without being completely dissolved in water” and the Dissolution in water ([3]; mixed with water for 1,000 ppm by mass) was “formed a saturated aqueous solution without being completely dissolved in water”. For the same compound, the Surface tension ([2]; saturated aqueous solution (not completely dissolved)) was 41 (saturated) mN/m.
For `N.O=S(=O)(NS(=O)(=O)C(F)(F)C(F)(F)C(F)(F)C(F)(F)F)C(F)(F)C(F)(F)C(F)(F)C(F)(F)F` [ammonium bis(perfluorobutanesulfonyl)imide], the “Surface tension-reducing ability compared to PFOS” value [4] is given as “lower than that of PFOS” and the “Ability to reduce surface tension compared to ammonium salt of PFOA” value [5] is given as “more able to reduce surface tension than the ammonium salt of perfluorooctanoic acid (PFOA)”.
